From patent US6479517B1, “Phosphorous-containing benzothiophenes” (Eli Lilly and Company, priority 1995, dated 2002)

Columns and labels:
[1] = system: Uterine Eosinophil Peroxidase (EPO); experiment: Uterine Eosinophil Peroxidase (EPO) Assay; format: in vivo, rat
Source text: (§1) Seventy-five day old female Sprague Dawley rats (weight range of 200 to 225g) were obtained from Charles River Laboratories (Portage, Mich.). The animals were either bilaterally ovariectomized (OVX) or exposed to a Sham surgical procedure at Charles River Laboratories, and then shipped after one week. Upon arrival, they were housed in metal hanging cages in groups of 3 or 4 per cage and had ad libitum access to food (calcium content approximately 0.5%) and water for one week. Room temperature was maintained at 22.20°±1.7° C. with a minimum relative humidity of 40%. The photoperiod in the room was 12 hours light and 12 hours dark.
(§2) Dosing Regimen Tissue Collection. After a one week acclimation period (therefore, two weeks post-OVX) daily dosing with test compound was initiated. 17α-ethynyl estradiol or the test compound were given orally, unless otherwise stated, as a suspension in 1% carboxymethylcellulose or dissolved in 20% cyclodextrin. Animals were dosed daily for 4 days. Following the dosing regimen, animals were weighed and anesthetized with a ketamine: xylazine (2:1, V:V) mixture and a blood sample was collected by cardiac puncture. The animals were then sacrificed by asphyxiation with CO2, the uterus was removed through a midline incision, and a wet uterine weight was determined.
Uterine Eosinophil Peroxidase (EPO) Assay. Uteri were kept at 4° C. until time of enzymatic analysis. The uteri were then homogenized in 50 volumes of 50 mM Tris buffer (pH—8.0) containing 0.005% Triton X-100. Upon addition of 0.01% hydrogen peroxide and 10 mM O-phenylenediamine (final concentrations) in Tris buffer, increase in absorbance was monitored for one minute at 450 nm. The presence of eosonophils in the uterus is an indication of estrogenic activity of a compound. The maximal velocity of a 15 second interval was determined over the initial, linear portion of the reaction curve.

ovariectomized rats [2] = experiment: Serum cholesterol in ovariectomized rat post-menopausal model; format: in vivo; settings: OVX Sprague Dawley rats, oral, daily for 4 days
Procedure: (§3) In the examples illustrating the methods, a post-menopausal model was used in which effects of different treatments upon circulating lipids were determined.
as §1, §2
Cholesterol Analysis. Blood samples were allowed to clot at room temperature for 2 hours, and serum was obtained following centrifugation for 10 minutes at 3000 rpm. Serum cholesterol was determined using a Boehringer Mannheim Diagnostics high performance cholesterol assay. Briefly the cholesterol was oxidized to cholest-4-en-3-one and hydrogen peroxide. The hydrogen peroxide was then reacted with phenol and 4-aminophenazone in the presence of peroxidase to produce a p-quinone imine dye, which was read spectrophotemetrically at 500 nm. Cholesterol concentration was then calculated against a standard curve. The entire assay was automated using a Biomek Automated Workstation.

[3] = system: Uterine Eosinophil Peroxidase (EPO); experiment: Uterine Eosinophil Peroxidase (EPO) Assay; format: in vivo, rat; settings: stromal layer of ovariectomized rats
ovariectomized rats [4] = experiment: Uterine weight in ovariectomized rat post-menopausal model (4-day dosing); format: in vivo; settings: for Uterine Weight (% increase vs. OVX): OVX Sprague Dawley rats, oral, daily for 4 days
Procedure: as §3, §1, §2

[5] = system: MCF-7 breast adenocarcinoma cells; experiment: MCF-7 Proliferation Assay; format: cell-based; settings: Homo sapiens, MCF7; MCF-7 cells, 48 hours with drug, 4 hours thymidine pulse; read-out: IC50 (MCF-7 proliferation, tritiated thymidine)
Procedure: MCF-7 breast adenocarcinoma cells (ATCC HTB 22) were maintained in MEM (minimal essential medium, phenol red-free, Sigma, St. Louis, Mo.) supplimented with 10% fetal bovine serum (FBS) (V/V), L-glutamine (2 mM), sodium pyruvate (1 mM), HEPES {(N-[2-hydroxyethyl]piperazine-N′-[2-ethanesulfonic acid]10 mM}, non-essential amino acids and bovine insulin (1 ug/mL) (maintenance medium). Ten days prior to assay, MCF-7 cells were switched to maintenance medium supplemented with 10% dextran coated charcoal stripped fetal bovine serum (DCC-FBS) assay medium) in place of 10% FBS to deplete internal stores of steroids. MCF-7 cells were removed from maintenance flasks using cell dissociation medium (Ca++/Mg++ free HBSS (phenol red-free) supplemented with 10 mM HEPES and 2 mM EDTA). Cells were washed twice with assay medium and adjusted to 80,000 cells/ML. Approximately 100 μL (8,000 cells) were added to flat-bottom microculture wells (Costar 3596) and incubated at 37° C. in a 5% CO2 humidified incubator for 48 hours to allow for cell adherence and equilibration after transfer. Serial dilutions of drugs or DMSO as a diluent control were prepared in assay medium and 50 μL transferred to triplicate microcultures followed by 50 μL assay medium for a final volume of 200 μL. After an additional 48 hours at 37° C. in a 5% CO2 humidified incubator, microcultures were pulsed with tritiated thymidine (1 uCi/well) for 4 hours. Cultures were terminated by freezing at −70° C. for 24 hours followed by thawing and harvesting of microcultures using a Skatron Semiautomatic Cell Harvester. Samples were counted by liquid scintillation using a Wallac BetaPlace β counter. Results in Table 2 below show the ED50 for certain compounds of the present invention.

[6] = OVX Sprague Dawley rats, oral, daily for 4 days, dose 0.1 mg/kg
[7] = OVX Sprague Dawley rats, oral, daily for 4 days, dose 0.01 mg/kg
[8] = OVX Sprague Dawley rats, oral, daily for 4 days, dose 1.0 mg/kg

Row | Structure (SMILES) | Uterine EPO (V. max) [1, 6] | Serum Cholesterol (% decrease vs. OVX) (ovariectomized rats [2]; dose 0.1 mg/kg) | Eosinophil infiltration into the uterus (in words) [3] | Uterine Weight (% increase vs. OVX) (ovariectomized rats [4]; dose 0.1 mg/kg) | Effect on uterine weight (in words) (ovariectomized rats [4]; compared to ovariectomized test animals, EE2 orally at 0.1 mg/kg/day) | Uterine EPO (V. max) [1, 7] | Uterine EPO (V. max) [1, 8] | Serum Cholesterol (% decrease vs. OVX) (ovariectomized rats [2]; dose 0.01 mg/kg) | Serum Cholesterol (% decrease vs. OVX) (ovariectomized rats [2]; dose 1.0 mg/kg) | Uterine Weight (% increase vs. OVX) (ovariectomized rats [4]; dose 0.01 mg/kg) | Uterine Weight (% increase vs. OVX) (ovariectomized rats [4]; dose 1.0 mg/kg) | IC50 [5] | Uterine EPO (V. max) ([1]; rat, in vivo, po, 0.01 mg/kg) | Uterine EPO (V. max) ([1]; rat, in vivo, po, 0.1 mg/kg) | Uterine EPO (V. max) ([1]; rat, in vivo, po, 1 mg/kg)
1 | C#C[C@]1(O)CC[C@H]2[C@@H]3CCc4cc(O)ccc4[C@H]3CC[C@@]21C [EE2, 17α-ethynyl estradiol, reference compound] | 109.3 | 85.9% | substantial, expected increase in eosinophil infiltration | 171.5% | substantially greater than the uterine weight of ovariectomized test animals | – | – | – | – | – | – | – | – | – | –
2 | CCOP(=O)(OCC)Oc1ccc(-c2sc3cc(OP(=O)(OCC)OCC)ccc3c2C(=O)c2ccc(OCCN3CCCCC3)cc2)cc1.Cl [Example 1] | 6.5 | 41.1% | – | 25.2% | – | 0.68 | 5.8 | 24.3% | 17.4% | 51.5% | 37.0% | 1 nM | – | – | –
3 | Cl.O=C(c1ccc(OCCN2CCCCC2)cc1)c1c(-c2ccc(OP(=O)(Oc3ccccc3)Oc3ccccc3)cc2)sc2cc(OP(=O)(Oc3ccccc3)Oc3ccccc3)ccc12 [Example 2] | 9.8 | 15.6% | – | 12.4% | – | 4 | 5.6 | −48.2% | 55.2% | 17.4% | 31.4% | 10 nM | – | – | –
4 | Cl.O=C(c1ccc(OCCN2CCCCC2)cc1)c1c(-c2ccc(OP(=O)(c3ccccc3)c3ccccc3)cc2)sc2cc(OP(=O)(c3ccccc3)c3ccccc3)ccc12 [Example 3] | 7 | 37.6% | – | 47.1% | – | 3.7 | 6.7 | −25% | 57.5% | 22.5% | 24.7% | 1 nM | – | – | –
5 | Cl.O=C(c1ccc(OCCN2CCCCC2)cc1)c1c(-c2ccc(O)cc2)sc2cc(O)ccc12 [Raloxifene, 6-hydroxy-2-(4-hydroxyphenyl)-3-[4-(2-piperidinoethoxy)benzoyl]benzo[b]thiophene, hydrochloride, reference compound] | – | 75.6% | – | – | – | – | – | 65% | 71.1% | – | – | – | 2.2 | 4.3 | 3.9
